Measurements as given in patent US10947271B2, “Antibacterial agents” (THE UNIVERSITY OF QUEENSLAND, priority 2014, dated 2021).

What was measured:
Assay type in all cases: cell-based
Details in all cases: 24 h incubation, visual reading
[1] = system: Staphylococcus aureus MRSA ATCC 43300; experiment: MIC assay, S. aureus MRSA ATCC 43300
Method: (§1) Antimicrobial activity of compounds was tested against a number of bacterial strains, including Staphylococcus aureus (MRSA ATCC 43300, GISA NRS17, VISA NRS1, MRSA clinical isolate, daptomycin resistant clinical isolate), Streptococcus pneumoniae (MDR ATCC 700677), Enterococcus faecalis (VanA clinical isolate) and Enterococcus faecium (MDR Van A ATCC 51559).
(§2) All compounds were prepared to 160 μg/ml solution in water from a stock solution of 1 mM concentration.
(§3) The compounds, along with standard antibiotics were serially diluted twofold across the wells of 96-well non-binding surface plates (NBS, Corning). Standards ranged from 64 μg/ml to 0.03 μg/ml and compounds from 8 μg/ml to 0.003 μg/ml with final volumes of 50 μL per well. Gram positive bacteria were cultured in Muller Hinton broth (MHB) (Bacto laboratories, Cat. no. 211443) at 37° C. overnight. A sample of each culture was then diluted 40-fold in fresh MHB broth and incubated at 37° C. for 2-3 hrs. The resultant mid-log phase cultures were diluted to the final concentration of 5×10e5 CFU/mL, then 50 μL was added to each well of the compound-containing 96-well plates. All the plates were covered and incubated at 37° C. for 24 h. MICs were the lowest concentration showing no visible growth.
(§4) MICs were determined visually at 24 hr incubation and the MIC was defined as the lowest concentration with which no growth was visible after incubation. Both MIC and MBC were determined by visual inspection only.

[2] = system: Streptococcus pneumoniae MDR ATCC 700677; experiment: MIC assay, S. pneumoniae MDR ATCC 700677
Method: as §1, §2, §3, §4

[3] = system: Enterococcus faecium MDR Van A ATCC 51559; experiment: MIC assay, E. faecium MDR Van A ATCC 51559
Method: as §1, §2, §3, §4

SMILES | Minimum Inhibitory Concentration (MIC) Staph. aureus ATCC43300 [1] | Minimum Inhibitory Concentration (MIC) S. pneumoniae ATCC 700677 [2] | Minimum Inhibitory Concentration (MIC) E. faecium ATCC51559 [3]
CNC(CC(C)C)C(=O)NC1C(=O)NC(CC(N)=O)C(=O)NC2C(=O)NC3C(=O)NC(C(=O)NC(C(=O)NCCCCC(NC(=O)C(CCCCN)NC(=O)C(CCCCN)NC(=O)C(CCCCN)NC(=O)c4ccc(Oc5ccccc5)cc4)C(=O)O)c4cc(O)cc(O)c4-c4cc3ccc4O)C(O)c3ccc(c(Cl)c3)Oc3cc2cc(c3OC2OC(CO)C(O)C(O)C2OC2CC(C)(N)C(O)C(C)O2)Oc2ccc(cc2Cl)C1O (stereo not drawn) [MCC_000194] | xxx (xxx = 0.1-<1) | xxx (xxx = 0.1-<1) | x (x = >4)
CNC(=O)C(CCCCNC(=O)C1NC(=O)C2NC(=O)C(NC(=O)C3NC(=O)C(CC(N)=O)NC(=O)C(NC(=O)C(CC(C)C)NC)C(O)c4ccc(c(Cl)c4)Oc4cc3cc(c4OC3OC(CO)C(O)C(O)C3OC3CC(C)(N)C(O)C(C)O3)Oc3ccc(cc3Cl)C2O)c2ccc(O)c(c2)-c2c(O)cc(O)cc21)NC(=O)C(CCCCN)NC(=O)C(CCCCN)NC(=O)C(CCCCN)NC(=O)C(CCCCNC(=O)c1ccc(Oc2ccccc2)cc1)NC(=O)c1ccc(Oc2ccccc2)cc1 (stereo not drawn) [MCC_000316] | xxxxx (xxxxx = <0.01) | xxxxx (xxxxx = <0.01) | xxxx (xxxx = 0.01-<0.1)
CCCCCCCC(=O)NCCCCC(NC(=O)CCCCCCC)C(=O)NC(CCCCN)C(=O)NC(CCCCNC(=O)C1NC(=O)C2NC(=O)C(NC(=O)C3NC(=O)C(CC(N)=O)NC(=O)C(NC(=O)C(CC(C)C)NC)C(O)c4ccc(c(Cl)c4)Oc4cc3cc(c4OC3OC(CO)C(O)C(O)C3OC3CC(C)(N)C(O)C(C)O3)Oc3ccc(cc3Cl)C2O)c2ccc(O)c(c2)-c2c(O)cc(O)cc21)C(=O)NC (stereo not drawn) [MCC_000490] | xxxx (xxxx = 0.01-<0.1) | xxxxx (xxxxx = <0.01) | x (x = >4)
CNC(CC(C)C)C(=O)NC1C(=O)NC(CC(N)=O)C(=O)NC2C(=O)NC3C(=O)NC(C(=O)NC(C(=O)NCCCCC(NC(=O)C(CCCCN)NC(=O)C(CCCCN)NC(=O)C(CCCCN)NC(=O)C(CCCCNC(=O)c4ccc(Oc5ccccc5)cc4)NC(=O)c4ccc(Oc5ccccc5)cc4)C(=O)O)c4cc(O)cc(O)c4-c4cc3ccc4O)C(O)c3ccc(c(Cl)c3)Oc3cc2cc(c3OC2OC(CO)C(O)C(O)C2OC2CC(C)(N)C(O)C(C)O2)Oc2ccc(cc2Cl)C1O (stereo not drawn) [MCC_000230] | xxxxx (xxxxx = <0.01) | xxxx (xxxx = 0.01-<0.1) | xxx (xxx = 0.1-<1)
CCCCCCCCC(=O)NC(CCCCN)C(=O)NC(CCCCN)C(=O)NC(CCCCNC(=O)C1NC(=O)C2NC(=O)C(NC(=O)C3NC(=O)C(CC(N)=O)NC(=O)C(NC(=O)C(CC(C)C)NC)C(O)c4ccc(c(Cl)c4)Oc4cc3cc(c4OC3OC(CO)C(O)C(O)C3OC3CC(C)(N)C(O)C(C)O3)Oc3ccc(cc3Cl)C2O)c2ccc(O)c(c2)-c2c(O)cc(O)cc21)C(=O)NC (stereo not drawn) [MCC_000491] | xxx (xxx = 0.1-<1) | xxx (xxx = 0.1-<1) | x (x = >4)
CCCCCCCCCOc1ccc(C(=O)NC(CCCCN)C(=O)NC(CCCCN)C(=O)NC(CCCCNC(=O)C2NC(=O)C3NC(=O)C(NC(=O)C4NC(=O)C(CC(N)=O)NC(=O)C(NC(=O)C(CC(C)C)NC)C(O)c5ccc(c(Cl)c5)Oc5cc4cc(c5OC4OC(CO)C(O)C(O)C4OC4CC(C)(N)C(O)C(C)O4)Oc4ccc(cc4Cl)C3O)c3ccc(O)c(c3)-c3c(O)cc(O)cc32)C(=O)NC)cc1 (stereo not drawn) [MCC_000504] | xxxxx (xxxxx = <0.01) | xxxxx (xxxxx = <0.01) | xxx (xxx = 0.1-<1)

Results, then the compound that gave them:

Minimum Inhibitory Concentration (MIC) Staph. aureus ATCC43300 [1] | Minimum Inhibitory Concentration (MIC) S. pneumoniae ATCC 700677 [2] | Minimum Inhibitory Concentration (MIC) E. faecium ATCC51559 [3] | SMILES
xxxx (xxxx = 0.01-<0.1) | xxx (xxx = 0.1-<1) | x (x = >4) | CNC(CC(C)C)C(=O)NC1C(=O)NC(CC(N)=O)C(=O)NC2C(=O)NC3C(=O)NC(C(=O)NC(C(=O)NCCCNC(=O)C(CCCCN)NC(=O)c4ccc(C(F)(F)F)cc4)c4cc(O)cc(O)c4-c4cc3ccc4O)C(O)c3ccc(c(Cl)c3)Oc3cc2cc(c3OC2OC(CO)C(O)C(O)C2OC2CC(C)(N)C(O)C(C)O2)Oc2ccc(cc2Cl)C1O (stereo not drawn) [MCC_007408]
xxx (xxx = 0.1-<1) | xxx (xxx = 0.1-<1) | x (x = >4) | CCCCCCCC(=O)N[C@@H](CCCCN)C(=O)N[C@@H](CCCCN)C(=O)NCCNC(=O)[C@H]1NC(=O)[C@H]2NC(=O)[C@H](NC(=O)[C@@H]3NC(=O)[C@H](CC(N)=O)NC(=O)[C@H](NC(=O)[C@@H](CC(C)C)NC)[C@H](O)c4ccc(c(Cl)c4)Oc4cc3cc(c4O[C@@H]3O[C@H](CO)[C@@H](O)[C@H](O)[C@H]3O[C@H]3C[C@](C)(N)[C@H](O)[C@H](C)O3)Oc3ccc(cc3Cl)[C@H]2O)c2ccc(O)c(c2)-c2c(O)cc(O)cc21 [MCC_005164]
xxxx (xxxx = 0.01-<0.1) | xxxx (xxxx = 0.01-<0.1) | xx (xx = 1-4) | CCCCCCCCC(=O)N[C@@H](CCCCN)C(=O)N[C@@H](CCCCN)C(=O)NCCCNC(=O)[C@H]1NC(=O)[C@H]2NC(=O)[C@H](NC(=O)[C@@H]3NC(=O)[C@H](CC(N)=O)NC(=O)[C@H](NC(=O)[C@@H](CC(C)C)NC)[C@H](O)c4ccc(c(Cl)c4)Oc4cc3cc(c4O[C@@H]3O[C@H](CO)[C@@H](O)[C@H](O)[C@H]3O[C@H]3C[C@](C)(N)[C@H](O)[C@H](C)O3)Oc3ccc(cc3Cl)[C@H]2O)c2ccc(O)c(c2)-c2c(O)cc(O)cc21 [MCC_005199]
xxx (xxx = 0.1-<1) | xxx (xxx = 0.1-<1) | x (x = >4) | CCCCCCC[C@H](O)CC(=O)N[C@@H](CCCCN)C(=O)N[C@@H](CCCCN)C(=O)N[C@@H](CCCCNC(=O)[C@H]1NC(=O)[C@H]2NC(=O)[C@H](NC(=O)[C@@H]3NC(=O)[C@H](CC(N)=O)NC(=O)[C@H](NC(=O)[C@@H](CC(C)C)NC)[C@H](O)c4ccc(c(Cl)c4)Oc4cc3cc(c4O[C@@H]3O[C@H](CO)[C@@H](O)[C@H](O)[C@H]3O[C@H]3C[C@](C)(N)[C@H](O)[C@H](C)O3)Oc3ccc(cc3Cl)[C@H]2O)c2ccc(O)c(c2)-c2c(O)cc(O)cc21)C(=O)O [MCC_005506]
xxxxx (xxxxx = <0.01) | xxxx (xxxx = 0.01-<0.1) | xx (xx = 1-4) | CNC(=O)[C@H](CCCCNC(=O)[C@H]1NC(=O)[C@H]2NC(=O)[C@H](NC(=O)[C@@H]3NC(=O)[C@H](CC(N)=O)NC(=O)[C@H](NC(=O)[C@@H](CC(C)C)NC)[C@H](O)c4ccc(c(Cl)c4)Oc4cc3cc(c4O[C@@H]3O[C@H](CO)[C@@H](O)[C@H](O)[C@H]3O)Oc3ccc(cc3Cl)[C@H]2O)c2ccc(O)c(c2)-c2c(O)cc(O)cc21)NC(=O)[C@H](CCCCN)NC(=O)[C@H](CCCCN)NC(=O)[C@H](CCCCNC(=O)c1ccc(Oc2ccc(F)cc2)cc1)NC(=O)c1ccc(Oc2ccc(F)cc2)cc1 [MCC_000651]
xxx (xxx = 0.1-<1) | xx (xx = 1-4) | x (x = >4) | CCCCCCCCC(=O)NC(CCCC[N+](C)(C)C)C(=O)NCCCNC(=O)C1NC(=O)C2NC(=O)C(NC(=O)C3NC(=O)C(CC(N)=O)NC(=O)C(NC(=O)C(CC(C)C)NC)C(O)c4ccc(c(Cl)c4)Oc4cc3cc(c4OC3OC(CO)C(O)C(O)C3OC3CC(C)(N)C(O)C(C)O3)Oc3ccc(cc3Cl)C2O)c2ccc(O)c(c2)-c2c(O)cc(O)cc21 (stereo not drawn) [MCC_007388]
xxxx (xxxx = 0.01-<0.1) | xxxx (xxxx = 0.01-<0.1) | xx (xx = 1-4) | CCCCCC1CCC(C(=O)N[C@@H](CCCCN)C(=O)N[C@@H](CCCCN)C(=O)N[C@@H](CCCCNC(=O)[C@H]2NC(=O)[C@H]3NC(=O)[C@H](NC(=O)[C@@H]4NC(=O)[C@H](CC(N)=O)NC(=O)[C@H](NC(=O)[C@@H](CC(C)C)NC)[C@H](O)c5ccc(c(Cl)c5)Oc5cc4cc(c5O[C@@H]4O[C@H](CO)[C@@H](O)[C@H](O)[C@H]4O[C@H]4C[C@](C)(N)[C@H](O)[C@H](C)O4)Oc4ccc(cc4Cl)[C@H]3O)c3ccc(O)c(c3)-c3c(O)cc(O)cc32)C(=O)O)CC1 (stereo partly drawn) [MCC_005503]
